Results reported in PMC8326492, “Novel Mannich bases with strong carbonic anhydrases and acetylcholinesterase inhibition effects: 3-(aminomethyl)-6-{3-[4-(trifluoromethyl)phenyl]acryloyl}-2(3H)-benzoxazolones” (Turkish Journal of Chemistry, 2021).

Tests used:
hCA II = hCA II (Homo sapiens, UniProt P00918); test: Carbonic anhydrase inhibition assay (esterase, p-nitrophenylacetate), hCA II
Protocol: (§1) CA inhibition assay was recorded according to previous studies [4,10,27,49,60–64]. The hCA I and II isoenzymes were purified from human red blood cells by sepharose-4B-L-tyrosine-sulfanilamide affinity chromatography [65], which was used as an affinity matrix for selective retention of both hCA isoenzymes [27,66]. […] After sepharose-4B-L-tyrosine-sulfanilamide affinity chromatography, the enzyme quantity was spectrophotometrically measured at 280 nm [68]. […] Purity controls of both CA isoenzymes were performed according to the Laemmli procedure as described in previous studies. Both isoenzymes were visualized by two different acrylamide concentrations (10% and 3% acrylamide), containing 0.1% sodium dodecyl sulfate (SDS) [69,70].

hCA I = hCA I (Homo sapiens, UniProt P00915); test: biochemical
Protocol: as §1

AChE = molecular target: T1, AChE (Electrophorus electricus, UniProt O42275); test: biochemical; conditions: electric eel AChE; mean from three different assays
T1 construct: AChE enzyme, obtained from electric eel; from tissue; host or cells: electric eel
Protocol: Acetylcholinesterase enzyme inhibition assay was performed according to our previous studies. […] The substrates of acetylthiocholine iodide (AChI) and 5,5’-dithiobis(2-nitro-benzoic acid) (DTNB) was used for cholinergic enzymatic reaction. For this purpose, 1 mL of Tris / HCl buffer (1.0 M, pH 8.0) and 10 μL of different concentrations of sample solution were dissolved in deionized water. Then, an aliquot of (50 μL) AChE enzyme was transferred and incubated at room temperature for 10 min. After the incubation period, an aliquot of DTNB (0.5 mM, 50 μL) was added. Then, the enzymatic reaction was started by adding 50 μL of AChI (10 mM).

T1 sequence (O42275 24-633): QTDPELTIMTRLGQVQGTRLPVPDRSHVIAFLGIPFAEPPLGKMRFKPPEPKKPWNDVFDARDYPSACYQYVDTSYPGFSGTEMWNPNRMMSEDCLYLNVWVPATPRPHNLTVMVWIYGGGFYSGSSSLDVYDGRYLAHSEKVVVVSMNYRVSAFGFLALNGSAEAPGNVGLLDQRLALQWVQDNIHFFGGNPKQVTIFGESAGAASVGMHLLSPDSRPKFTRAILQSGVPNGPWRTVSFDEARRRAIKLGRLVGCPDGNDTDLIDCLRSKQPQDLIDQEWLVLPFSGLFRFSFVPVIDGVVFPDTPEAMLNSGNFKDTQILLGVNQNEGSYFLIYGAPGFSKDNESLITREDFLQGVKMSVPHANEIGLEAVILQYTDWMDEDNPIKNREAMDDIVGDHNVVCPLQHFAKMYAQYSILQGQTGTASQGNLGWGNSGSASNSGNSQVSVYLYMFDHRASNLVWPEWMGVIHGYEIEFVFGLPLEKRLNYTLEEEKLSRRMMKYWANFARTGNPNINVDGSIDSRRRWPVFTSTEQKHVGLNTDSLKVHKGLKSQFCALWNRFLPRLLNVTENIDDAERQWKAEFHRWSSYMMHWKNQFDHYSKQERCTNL
hCA I, sequence (P00915 whole entry): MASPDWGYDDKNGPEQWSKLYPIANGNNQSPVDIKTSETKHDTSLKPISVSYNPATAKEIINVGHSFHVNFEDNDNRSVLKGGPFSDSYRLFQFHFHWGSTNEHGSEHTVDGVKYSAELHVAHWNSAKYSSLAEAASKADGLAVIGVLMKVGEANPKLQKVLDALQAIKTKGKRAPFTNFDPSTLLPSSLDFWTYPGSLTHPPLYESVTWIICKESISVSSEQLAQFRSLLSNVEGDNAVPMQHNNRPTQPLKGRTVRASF

With CN(C)Cn1c(=O)oc2cc(C(=O)C=Cc3ccc(C(F)(F)F)cc3)ccc21 [Compound 1a, 3-[(Dimethylamino)methyl]-6-{3-[4-(trifluoromethyl)phenyl]acryloyl}benzoxazol-2(3H)-one] the Ki (hCA II) was 23.3 ± 2 nM, the Ki (hCA I) was 31.4 ± 5.3 nM and the Ki (AChE) was 130 ± 17.6 nM.
For CCCN(CCC)Cn1c(=O)oc2cc(C(=O)C=Cc3ccc(C(F)(F)F)cc3)ccc21 [Compound 1c, 3-[(Dipropylamino)methyl]-6-{3-[4-(trifluoromethyl)phenyl]acryloyl}benzoxazol-2(3H)-one], the Ki (hCA II) was 24.6 ± 4.7 nM, the Ki (hCA I) was 22.3 ± 2.3 nM and the Ki (AChE) was 116 ± 32 nM.
CN1CCN(Cn2c(=O)oc3cc(C(=O)C=Cc4ccc(C(F)(F)F)cc4)ccc32)CC1 [Compound 1g, 3-[(4-Methylpiperazin-1-yl)methyl]-6-{3-[4-(trifluoromethyl)phenyl]acryloyl} benzoxazol-2(3H)-one] showed a Ki (hCA II) of 8.6 ± 1.9 nM, a Ki (hCA I) of 53 ± 1.8 nM and a Ki (AChE) of 48.5 ± 10.2 nM.
For O=C(C=Cc1ccc(C(F)(F)F)cc1)c1ccc2c(c1)oc(=O)n2CN1CCCC1 [Compound 1d, 3-(Pyrrolidin-1-ylmethyl)-6-{3-[4-(trifluoromethyl)phenyl]acryloyl}benzoxazol-2(3H)-one], the Ki (hCA II) was 19 ± 3 nM, the Ki (hCA I) was 12.3 ± 1.2 nM and the Ki (AChE) was 97.6 ± 14.4 nM.
O=C(C=Cc1ccc(C(F)(F)F)cc1)c1ccc2c(c1)oc(=O)n2CN1CCOCC1 [Compound 1f, 3-(Morpholinomethyl)-6-{3-[4-(trifluoromethyl)phenyl]acryloyl}benzoxazol-2(3H)-one] was tested, and the Ki (hCA II) was 41 ± 5.5 nM, the Ki (hCA I) was 20.4 ± 1.7 nM and the Ki (AChE) was 35.2 ± 2 nM.
Molecule O=C(/C=C/c1ccc(C(F)(F)F)cc1)c1ccc2[nH]c(=O)oc2c1 [Compound 1, (E )-6-{3-[4-(trifluoromethyl)phenyl]acryloyl}benzoxazol-2(3H )-one] has a Ki (hCA II) of 33.6 ± 4.5 nM, a Ki (hCA I) of 154 ± 9.3 nM and a Ki (AChE) of 159 ± 33.5 nM.
CCN(CC)Cn1c(=O)oc2cc(C(=O)C=Cc3ccc(C(F)(F)F)cc3)ccc21 [Compound 1b, 3-[(Diethylamino)methyl]-6-{3-[4-(trifluoromethyl)phenyl]acryloyl}benzoxazol-2(3H)-one] gave a Ki (hCA II) of 37.6 ± 4.3 nM, a Ki (hCA I) of 36.8 ± 7.7 nM and a Ki (AChE) of 142 ± 22.1 nM.
O=C(C=Cc1ccc(C(F)(F)F)cc1)c1ccc2c(c1)oc(=O)n2CN1CCCCC1 [Compound 1e, 3-(Piperidin-1-ylmethyl)-6-(3-(4-(trifluoromethyl)phenyl)acryloyl)benzoxazol-2(3H)-one] gave a Ki (hCA II) of 18.1 ± 3.5 nM, a Ki (hCA I) of 27.6 ± 2.9 nM and a Ki (AChE) of 84 ± 19.2 nM.
